Laboratory results from patent US10160747B2, “Compounds and methods for kinase modulation, and indications therefor” (Plexxikon Inc., priority 2016, dated 2018).
pIC50: −log10 of the molar value.

Legend:
[1] = system: MOLM-14 F691L (endogenous FLT3 ITD and transfected FLT3 F691L); assay: MOLM-14 F691L cell proliferation assay (CellTiter-Glo); assay type: cell-based; conditions: Homo sapiens, MOLM-14, 72 h; 3 d growth, GMean
In short: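 Three-day proliferation at 37 °C/5% CO2 of FLT3-ITD MOLM-14 lines with D835Y or F691L mutation, seeded 1×10^4 per well. Compounds at eight points, top 1 μM final, 0.2% DMSO. ATP luminescence (CellTiter-Glo) gives IC50.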

BA/F3-FLT3-ITD + D835Y = molecular target: T1, BA/F3-FLT3-ITD + D835Y (Homo sapiens, UniProt P36888, D835Y, cells depend on it, form not given); assay: Engineered BA/F3 cell growth assay, FLT3 ITD/D835Y; assay type: cell-based, murine; conditions: 3 d growth
T1 sequence (P36888 with tags, fused parts or gaps INS600HVDFREYEYD/D835Y): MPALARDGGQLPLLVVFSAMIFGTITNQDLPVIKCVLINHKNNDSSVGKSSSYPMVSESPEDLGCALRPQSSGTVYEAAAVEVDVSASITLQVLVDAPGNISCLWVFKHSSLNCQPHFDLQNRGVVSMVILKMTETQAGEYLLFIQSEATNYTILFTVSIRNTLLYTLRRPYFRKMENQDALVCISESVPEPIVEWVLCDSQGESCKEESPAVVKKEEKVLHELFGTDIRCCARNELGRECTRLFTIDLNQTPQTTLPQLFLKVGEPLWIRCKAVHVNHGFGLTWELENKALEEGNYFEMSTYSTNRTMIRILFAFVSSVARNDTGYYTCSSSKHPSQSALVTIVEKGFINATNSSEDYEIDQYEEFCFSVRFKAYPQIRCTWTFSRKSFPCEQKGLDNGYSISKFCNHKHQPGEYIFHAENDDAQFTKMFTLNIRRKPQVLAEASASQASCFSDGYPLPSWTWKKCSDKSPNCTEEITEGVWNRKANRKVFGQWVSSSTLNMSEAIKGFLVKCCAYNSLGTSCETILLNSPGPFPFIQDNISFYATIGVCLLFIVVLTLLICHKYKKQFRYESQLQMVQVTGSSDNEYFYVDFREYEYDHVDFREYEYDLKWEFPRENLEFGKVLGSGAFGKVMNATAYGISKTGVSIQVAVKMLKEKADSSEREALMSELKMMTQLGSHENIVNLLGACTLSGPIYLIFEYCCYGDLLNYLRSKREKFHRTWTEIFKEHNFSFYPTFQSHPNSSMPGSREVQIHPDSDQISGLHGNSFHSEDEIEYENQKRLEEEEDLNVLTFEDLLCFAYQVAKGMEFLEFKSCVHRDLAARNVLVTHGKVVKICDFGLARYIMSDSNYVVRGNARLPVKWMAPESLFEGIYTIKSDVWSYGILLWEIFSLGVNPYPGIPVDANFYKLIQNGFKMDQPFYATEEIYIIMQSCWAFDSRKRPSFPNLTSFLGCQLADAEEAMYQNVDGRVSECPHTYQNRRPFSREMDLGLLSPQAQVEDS
In short: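 IC50 derived from CellTiter-Glo ATP luminescence after 3 days at 37 °C, 5% CO2, over eight 1:3 dilutions from 1 μM (0.2% DMSO final). Cells: IL-3-independent murine Ba/F3 expressing full-length FLT3 ITD/D835Y, 1×10^4 per well.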

Row | Compound | pIC50 [1] | GI50 (BA/F3-FLT3-ITD + D835Y)
1 | COc1ncc(NC(=O)Cc2ccc(-c3cnc(Nc4cn(C)cn4)nc3)cc2F)cc1C(F)(F)F [Compound P-0101, 2-[2-fluoro-4-[2-[(1-methylimidazol-4-yl)amino]pyrimidin-5-yl]phenyl]-N-[6-methoxy-5-(trifluoromethyl)-3-pyridyl]acetamide] | 5.00 to 10.00 | 0.0001 to 10 µM
2 | CCc1cncc(NC(=O)Cc2ccc(-c3cnc(Nc4cnn(C)c4)nc3)cc2F)c1 [Compound P-0111, N-(5-ethyl-3-pyridyl)-2-[2-fluoro-4-[2-[(1-methylpyrazol-4-yl)amino]pyrimidin-5-yl]phenyl]acetamide] | 5.00 to 10.00 | 0.0001 to 10 µM
3 | Cn1cc(Nc2ncc(-c3ccc(CC(=O)Nc4cccnc4)cc3)cn2)cn1 [Compound P-0131, 2-[4-[2-[(1-methylpyrazol-4-yl)amino]pyrimidin-5-yl]phenyl]-N-(3-pyridyl)acetamide] | 5.00 to 10.00 | 0.0001 to 10 µM
4 | Cn1cc(Nc2ncc(-c3ccc(CC(=O)NCc4cccnc4)cc3)cn2)cn1 [Compound P-0132, 2-[4-[2-[(1-methylpyrazol-4-yl)amino]pyrimidin-5-yl]phenyl]-N-(3-pyridylmethyl)acetamide] | 5.00 to 10.00 | 0.0001 to 10 µM
5 | COc1cncc(NC(=O)Cc2ccc(-c3cnc(Nc4cnn(C)c4)nc3)cc2)c1 [Compound P-0133, N-(5-methoxy-3-pyridyl)-2-[4-[2-[(1-methylpyrazol-4-yl)amino]pyrimidin-5-yl]phenyl]acetamide] | 5.00 to 10.00 | 0.0001 to 10 µM
6 | Cn1cc(Nc2ncc(-c3ccc(CC(=O)Nc4ccnc(C(F)(F)F)c4)cc3)cn2)cn1 [Compound P-0134, 2-[4-[2-[(1-methylpyrazol-4-yl)amino]pyrimidin-5-yl]phenyl]-N-[2-(trifluoromethyl)-4-pyridyl]acetamide] | 5.00 to 10.00 | 0.0001 to 10 µM
7 | Cn1cc(Nc2ncc(-c3ccc(CC(=O)Nc4cc(C(F)(F)F)ncn4)cc3)cn2)cn1 [Compound P-0135, 2-[4-[2-[(1-methylpyrazol-4-yl)amino]pyrimidin-5-yl]phenyl]-N-[6-(trifluoromethyl)pyrimidin-4-yl]acetamide] | 5.00 to 10.00 | 0.0001 to 10 µM
8 | Cn1cc(Nc2ncc(-c3ccc(CC(=O)Nc4cncc(C(F)(F)F)c4)cc3)cn2)cn1 [Compound P-0136, 2-[4-[2-[(1-methylpyrazol-4-yl)amino]pyrimidin-5-yl]phenyl]-N-[5-(trifluoromethyl)-3-pyridyl]acetamide] | 5.00 to 10.00 | 0.0001 to 10 µM
9 | Cn1cc(Nc2ncc(-c3ccc(CC(=O)Nc4ccnc(C(F)(F)F)n4)cc3)cn2)cn1 [Compound P-0137, 2-[4-[2-[(1-methylpyrazol-4-yl)amino]pyrimidin-5-yl]phenyl]-N-[2-(trifluoromethyl)pyrimidin-4-yl]acetamide] | 5.00 to 10.00 | 0.0001 to 10 µM
10 | COc1ncc(NC(=O)Cc2ccc(-c3cnc(Nc4cnn(C)c4)nc3)cc2)cc1C(F)(F)F [Compound P-0138, N-[6-methoxy-5-(trifluoromethyl)-3-pyridyl]-2-[4-[2-[(1-methylpyrazol-4-yl)amino]pyrimidin-5-yl]phenyl]acetamide] | 5.00 to 10.00 | 0.0001 to 10 µM
11 | Cn1cc(Nc2ncc(-c3ccc(CC(=O)Nc4cc(C(F)(F)F)ccn4)cc3)cn2)cn1 [Compound P-0139, 2-[4-[2-[(1-methylpyrazol-4-yl)amino]pyrimidin-5-yl]phenyl]-N-[4-(trifluoromethyl)-2-pyridyl]acetamide] | 5.00 to 10.00 | 0.0001 to 10 µM
12 | Cc1ncc(NC(=O)Cc2ccc(-c3cnc(Nc4cnn(C)c4)nc3)cc2)cc1C(F)(F)F [Compound P-0140, 2-[4-[2-[(1-methylpyrazol-4-yl)amino]pyrimidin-5-yl]phenyl]-N-[6-methyl-5-(trifluoromethyl)-3-pyridyl]acetamide] | 5.00 to 10.00 | 0.0001 to 10 µM
13 | Cn1cc(Nc2ncc(-c3ccc(CC(=O)Nc4cccc(C(F)(F)F)c4)cc3)cn2)cn1 [Compound P-0141, 2-[4-[2-[(1-methylpyrazol-4-yl)amino]pyrimidin-5-yl]phenyl]-N-[3-(trifluoromethyl)phenyl]acetamide] | 5.00 to 10.00 | 0.0001 to 10 µM
14 | Cn1cc(Nc2ncc(-c3ccc(CC(=O)Nc4ccc(C(F)(F)F)c(F)c4)cc3)cn2)cn1 [Compound P-0142, N-[3-fluoro-4-(trifluoromethyl)phenyl]-2-[4-[2-[(1-methylpyrazol-4-yl)amino]pyrimidin-5-yl]phenyl]acetamide] | 5.00 to 10.00 | 0.0001 to 10 µM
15 | Cn1cc(Nc2ncc(-c3ccc(CC(=O)Nc4ccc(C(C)(C)C)nc4)cc3)cn2)cn1 [Compound P-0143, N-(6-tert-butyl-3-pyridyl)-2-[4-[2-[(1-methylpyrazol-4-yl)amino]pyrimidin-5-yl]phenyl]acetamide] | 5.00 to 10.00 | 0.0001 to 10 µM
16 | Cn1cc(Nc2ncc(-c3ccc(CC(=O)Nc4cncc(C(C)(F)F)c4)cc3)cn2)cn1 [Compound P-0144, N-[5-(1,1-difluoroethyl)-3-pyridyl]-2-[4-[2-[(1-methylpyrazol-4-yl)amino]pyrimidin-5-yl]phenyl]acetamide] | 5.00 to 10.00 | 0.0001 to 10 µM

Next, values leading:

Row | pIC50 [1] | GI50 (BA/F3-FLT3-ITD + D835Y) | Compound
17 | 5.00 to 10.00 | 0.0001 to 10 µM | Cn1cnc(Nc2ncc(-c3ccc(CC(=O)Nc4cc(C(C)(F)F)ccn4)c(F)c3)cn2)c1 [Compound P-0102, N-[4-(1,1-difluoroethyl)-2-pyridyl]-2-[2-fluoro-4-[2-[(1-methylimidazol-4-yl)amino]pyrimidin-5-yl]phenyl]acetamide]
18 | 5.00 to 10.00 | 0.0001 to 10 µM | Cn1cnc(Nc2ncc(-c3ccc(CC(=O)Nc4cncc(C(C)(F)F)c4)c(F)c3)cn2)c1 [Compound P-0103, N-[5-(1,1-difluoroethyl)-3-pyridyl]-2-[2-fluoro-4-[2-[(1-methylimidazol-4-yl)amino]pyrimidin-5-yl]phenyl]acetamide]
19 | 5.00 to 10.00 | 0.0001 to 10 µM | Cn1cc(Nc2ncc(-c3ccc(CC(=O)Nc4cnc(F)c(C(C)(F)F)c4)cc3)cn2)cn1 [Compound P-0104, N-[5-(1,1-difluoroethyl)-6-fluoro-3-pyridyl]-2-[4-[2-[(1-methylpyrazol-4-yl)amino]pyrimidin-5-yl]phenyl]acetamide]
20 | 5.00 to 10.00 | 0.0001 to 10 µM | Cn1cc(Nc2ncc(-c3ccc(CC(=O)Nc4cnc(F)c(C(C)(F)F)c4)c(F)c3)cn2)cn1 [Compound P-0105, N-[5-(1,1-difluoroethyl)-6-fluoro-3-pyridyl]-2-[2-fluoro-4-[2-[(1-methylpyrazol-4-yl)amino]pyrimidin-5-yl]phenyl]acetamide]
21 | 5.00 to 10.00 | 0.0001 to 10 µM | Cn1cc(Nc2ncc(-c3ccc(CC(=O)Nc4ccc(C(F)(F)F)cn4)c(F)c3)cn2)cn1 [Compound P-0106, 2-[2-fluoro-4-[2-[(1-methylpyrazol-4-yl)amino]pyrimidin-5-yl]phenyl]-N-[5-(trifluoromethyl)-2-pyridyl]acetamide]
22 | 5.00 to 10.00 | 0.0001 to 10 µM | Cn1cc(Nc2ncc(-c3ccc(CC(=O)Nc4cc(Cl)c(C5CC5)cn4)c(F)c3)cn2)cn1 [Compound P-0107, N-(4-chloro-5-cyclopropyl-2-pyridyl)-2-[2-fluoro-4-[2-[(1-methylpyrazol-4-yl)amino]pyrimidin-5-yl]phenyl]acetamide]
23 | 5.00 to 10.00 | 0.0001 to 10 µM | Cn1cc(Nc2ncc(-c3ccc(CC(=O)Nc4ccc(C(C)(C)C#N)nc4)c(F)c3)cn2)cn1 [Compound P-0108, N-[6-(1-cyano-1-methyl-ethyl)-3-pyridyl]-2-[2-fluoro-4-[2-[(1-methylpyrazol-4-yl)amino]pyrimidin-5-yl]phenyl]acetamide]
24 | 5.00 to 10.00 | 0.0001 to 10 µM | Cn1cc(Nc2ncc(-c3ccc(CC(=O)Nc4ccc(C(F)(F)F)cn4)cc3)cn2)cn1 [Compound P-0109, 2-[4-[2-[(1-methylpyrazol-4-yl)amino]pyrimidin-5-yl]phenyl]-N-[5-(trifluoromethyl)-2-pyridyl]acetamide]
25 | 5.00 to 10.00 | 0.0001 to 10 µM | Cn1cc(Nc2ncc(-c3ccc(CC(=O)Nc4ccc(C(F)(F)F)nc4)c(F)c3)cn2)cn1 [Compound P-0110, 2-[2-fluoro-4-[2-[(1-methylpyrazol-4-yl)amino]pyrimidin-5-yl]phenyl]-N-[6-(trifluoromethyl)-3-pyridyl]acetamide]
